Test results taken from paper PMC3561363, “A Novel Retro-Inverso Peptide Inhibitor Reduces Amyloid Deposition, Oxidation and Inflammation and Stimulates Neurogenesis in the APPswe/PS1ΔE9 Mouse Model of Alzheimer’s Disease” (PLoS ONE, 2013).

Columns and labels:
[1] = tested on: Aβ; parameters: method as in 2 sources, ref 16 = [16]; PMID 20230062; doi:10.1021/bi100144m; 16 Taylor M , Moore S , Mayes J , Parkin E , Beeg M , et al ( 2010 ) Development of a proteolytically stable retro-inverso peptide inhibitor of β-amyloid oligomerization as a potential novel treatment ||| ref 5, 52 = [5]; PMID 19605645; doi:10.1523/JNEUROSCI.1071-09.2009; 5 Ma QL , Yang F , Rosario ER , Ubeda OJ , Beech W , et al ( 2009 ) β-amyloid oligomers induce phosphorylation of tau and inactivation of insulin receptor substrate via c-Jun N-terminal kinase signali || [52]; PMID 15590663; doi:10.1074/jbc.M404751200; 52 Yang F , Lim GP , Begum AN , Ubeda OJ , Simmons MR , et al ( 2005 ) Curcumin inhibits formation of amyloid β oligomers and fibrils, binds plaques, and reduces amyloid in vivo . J Biol Chem 280 : 58; conditions: cited from earlier work
[2] = parameters: method as in earlier work; conditions: no reference given; 53 concern derivatives; cited from earlier work
[3] = tested on: APP/PS1 transgenic mice; assay: Blood brain barrier penetration and brain localisation after i.p. injection; format: in vivo, mouse; conditions: 100 nmol/kg i.p., 1 h, 17-month old APP/PS1 mice
Experimental: APPswe/PS1ΔE9 mice with a C57Bl/6 background (APP/PS1 mice) were obtained from the Jackson lab (http://research.jax.org/repository/alzheimers.html). […] To look at the effects of RI-OR2-TAT on mouse brain pathology (experiment 2), 8 female 10-months-old APP/PS1 mice were used. The animals were housed in single cages in a temperature controlled holding room (21.5°C±1) with 12∶12 h light and dark cycle. Food and water was available ad libitum.
The animals were then housed in a dark room. After 1 h, the animals were anaesthetised with isoflurane and sodium barbiturate (Dolethal, Bayer, Germany), transcardially perfused and the brains were retrieved and fixed in 4% ice cold paraformaldehyde.
For experiment 1 (BBB penetration), individual sections were incubated with the following primary antibodies at 4°C overnight: anti-Aβ (1∶200 dilution, Invitrogen, 71–5800), or anti-Iba 1 (1∶1000 dilution, Wako 016-20001, Germany). Sections were then stained with goat anti-rabbit Alexa Fluor 555 (1∶150 dilution, A21428 Invitrogen) for 1 h.
All sections were visualized using an Axio Scope 1 fluorescence microscope (Zeiss, Germany). For quantification, two images per section were taken from the cortex area with a 10X objective for 8-oxo guanine and β-amyloid staining, and a 100X objective for Iba1 staining, with a minimum of 5 sections visualized per animal. […]

[4] = tested on: SHSY-5Y cells; assay: Cell penetration of fluorescein-tagged peptides, microscopy; conditions: 1 µM
[5] = tested on: AD patients; conditions: cited from earlier work
[6] = tested on: cultured cells; parameters: method as in PMID 20230062; conditions: cited from earlier work
[7] = tested on: Aβ42; assay: Thioflavin T (ThT) assay for Aβ fibrils; format: biochemical; conditions: ThT, 25 µM Aβ42, 48 h; figure title
Experimental: This method was the same as that published previously. Briefly, 60 µl samples of solutions containing Aβ42 (25 µM), ThT (15 µM) and between 0 and 125 µM RI-OR2 or RI-OR2–TAT, in 10 mM phosphate buffered saline (PBS), pH 7.4, were incubated in sealed, black, clear-bottomed 384-well plates (Corning). ThT fluorescence was monitored every 10 mins (λex = 442 nm, λem = 483 nm) for 48 h at 30°C in a Biotek Synergy 2 plate reader.

[8] = target: immobilized Aβ(1–42) (Aβ42) monomers, oligomers and fibrils; parameters: method as in PMID 20230062; conditions: SPR; cited from earlier work
[9] = tested on: soluble Aβ and β-amyloid plaque deposits in mice; parameters: method as in PMID 22323736; conditions: oral administration, cited from earlier work
[10] = tested on: Drosophila; parameters: method as in PMID 20559435; conditions: cited from earlier work

In the case of `COc1cc(/C=C/C(=O)CC(=O)/C=C/c2ccc(O)c(OC)c2)ccc1O` [curcumin, reference compound], the “inhibition of Aβ aggregation” value [1] is given as “effective inhibitor of Aβ aggregation” and the bioavailability [2] is given as “poor bioavailability”.
With “fluorescein-rGffvlkGrrrrqrrkkrGy-NH2 [Flu-RI-OR2-TAT]” the “localisation relative to activated microglia” value ([3]; AlexaFluor 555 anti-Iba 1) was “found inside activated microglial cells”, the “localisation relative to amyloid plaques” value ([3]; cerebral cortex, AlexaFluor 555 anti-Aβ) was “co-localised with amyloid plaques” and the “cell uptake (fluorescence localisation)” value ([4]; 10 mins) was “build up of fluorescence inside the cells”.
In the case of “AN1792: pre-aggregated Aβ42, first clinical trial of immunisation”, the “adverse effects in first clinical trial” value ([5]; human, in vivo) is given as “adverse effects involving detrimental T-cell-mediated brain inflammation”.
In the case of Ac-rGffvlkGr-NH2 [RI-OR2], the “effect on Aβ toxicity to cultured cells” value [6] is given as “inhibits the toxic effects of Aβ on cultured cells”, the “inhibition of Aβ42 aggregation (Fig. 1)” value [7] is given as “inhibit the aggregation of Aβ42” and the Kd [8] is given as 9 to 29 µM. For the same compound, the “inhibition of Aβ oligomer and fibril formation in vitro” value [1] was “blocks the formation of Aβ oligomers and fibrils in vitro”.
With fluorescein-rGffvlkGr-NH2 [Flu-RI-OR2] the “cell uptake (fluorescence localisation)” value ([4]; 1 h) was “remained in the culture medium”.
For `C=C(c1ccc(C(=O)O)cc1)c1cc2c(cc1C)C(C)(C)CCC2(C)C` [bexarotene], the “clearance of soluble Aβ” value ([9]; apoE-mediated mechanisms) is given as “enhance clearance of soluble Aβ” and the β-amyloid plaque deposits [9] is given as “reduce β-amyloid plaque deposits in mice”.
For `O=C1C=C(N[C@@H](Cc2c[nH]c3ccccc23)C(=O)O)C(=O)c2ccccc21` [NQTrp, 1,4-naphthoquinon-2-yl-L-tryptophan], the “phenotypic changes in Drosophila AD model” value [10] is given as “reversed phenotypic changes in Drosophila”.
For Solanezumab: Solanezumab (Eli Lilly), the “Phase III trial outcome” value ([5]; mild-to-moderate AD, ref presented at CTAD 2012) is listed as “did not achieve key Phase III trial goals of improved cognition and function”.
